Literature values as cited in US20130323309A1, “Sustained Release Composition of Memantine” (LUPIN LIMITED, priority 2011, published 2013).

Settings: aqueous media and polar solvents; memantine or a pharmaceutically acceptable salt

Solubility: highly soluble
SMILES: CC12CC3CC(C)(C1)CC(N)(C3)C2 [Memantine, 1-amino-3,5-dimethyladamantane]
